The source of these data is patent US11548849B2, “Alcohol derivatives as KV7 potassium channel openers” (H. Lundbeck A/S, priority 2019, dated 2023).

This test has as its target T1, hKv7.2/hKv7.3 (Homo sapiens, UniProt O43525+O43526).
T1 construct: P2A self-cleaving peptide (between Kv7.3 and Kv7.2; the remnant would stay on the upstream protein) (C); expressed in transfected cells
The test can be described thus: Thallium influx assay for potassium channel activation. Format: cell-based. Conditions: HEK-hKv7.2/hKv7.3 cells; FLIPR Potassium Assay kit; AUC readout normalized to a reference compound. On the procedure:
A synthesized cDNA fragment encoding human Kv7.3 and human Kv7.2 separated by a P2A sequence was inserted into the pcDNA5/FRT/TO vector using the BamHI and XhoI restriction sites. The construct was then transfected into HEK Flp-In 293 cells using Lipofectamine2000. The transfected cells were grown for 48 hours in DMEM containing 10% (v/v) FBS and 1% PenStrep and subsequently maintained under selection in DMEM containing 10% (v/v) FBS, 1% PenStrep and 200 ug/mL Hygromycin B at 37° C. in a humidified atmosphere of 5% CO2.
The thallium influx assay for potassium channel activation was performed analogously to a published procedure (C. D. Weaver, et al., J Biomol Screen 2004, 9, 671-677) using the FLIPR Potassium Assay kit (Molecular Devices). HEK-hKv7.2/hKv7.3 cells were plated onto 96-well, black-walled, clear-bottomed culture plates (Corning, Acton, Mass., USA) at a density of 80,000 cells/well (100 μl/well) if the cells were assayed the following day, or 40,000 cells/well (100 μl/well) if the cells were assayed two days after seeding.
On the assay day, the medium was removed after which 50 uL/well of test compound diluted to 2× final concentration in HBSS containing 20 mM HEPES, and 50 uL/well of 2× dye load buffer were added. The cells were then incubated for 60 min at room temperature in the dark. Chloride-free stimulation buffer containing Tl^+ and K^+ at 5× final concentration (5× concentration: 5 mM in both cases) and test compound at 1× final concentration, were prepared during the incubation. The cells were then assayed in a FDSS7000EX Functional Drug Screening System (Hamamatsu). Following 60 sec of baseline fluorescence signal reading at 0.1 Hz, and 10 sec at 1 Hz, 25 uL/well of stimulation buffer were added and the fluorescence continuously measured for 50 sec at 1 Hz followed, by 4 min at 0.1 Hz. Compound effect was quantified using AUC as readout and normalized to a reference compound, which was included on each plate.
As usually defined, the EC50 is the midpoint of the concentration-response curve. As for `O=C(CC1(O)CC(F)(F)C1)N[C@@H](COC1CC1)c1cccc(OC(F)(F)F)c1` [Example 28, (R)—N-(2-cyclopropoxy-1-(3-(trifluoromethoxy)phenyl)ethyl)-2-(3,3-difluoro-1-hydroxycyclobutyl)acetamide], the EC50 is 3.2 µM.
Turning to `CCC[C@H](NC(=O)CC1(O)CC(F)(F)C1)c1cccc(OC(F)F)c1` [Example 31, (S)-2-(3,3-difluoro-1-hydroxycyclobutyl)-N-(1-(3-(difluoromethoxy)phenyl)butyl)acetamide], the EC50 came out at 2.6 µM. This EC50 and that of the molecule before are within 1.5-fold of each other.
Then `CC(O)(CC(=O)N[C@@H](COC(F)F)c1cccc(OC(F)F)c1)CC(F)(F)F` (single isomer, unassigned) [Example 12a], with 1.3 µM; and `CCOC[C@H](NC(=O)CC(O)C(C)(C)C)c1cccc(OC(F)(F)F)c1` (single isomer, unassigned) [Example 2a], with 10 µM; and `CC(O)(CC(=O)N[C@@H](COC(F)F)c1cccc(OC(F)F)c1)C1(F)CC1` (single isomer, unassigned) [Example 9a], with 1.5 µM.
`CCC[C@H](NC(=O)CC(O)C1CC(F)(F)C1)c1cccc(OC(F)F)c1` (single isomer, unassigned) [Example 7a]: the EC50 was 4 µM.
In the case of `O=C(CC1(O)CC(F)(F)C1)N[C@@H](COC1CC1)c1cccc(OC(F)F)c1` [Example 29, (R)—N-(2-cyclopropoxy-1-(3-(difluoromethoxy)phenyl)ethyl)-2-(3,3-difluoro-1-hydroxycyclobutyl)acetamide] it was 5.4 µM; in that of `O=C(CC(O)C1(C(F)(F)F)CC1)N[C@@H](COC(F)F)c1cccc(OC(F)(F)F)c1` (single isomer, unassigned) [Example 4b], 2.9 µM; in that of `CC(C)(C)[C@@H](O)CC(=O)N[C@@H](CCC(F)F)c1cccc(OC(F)F)c1` [Example 21, (S)—N—((S)-1-(3-(difluoromethoxy)phenyl)-4,4-difluorobutyl)-3-hydroxy-4,4-dimethylpentanamide], 1 µM.
In the case of `CC1(C)CC(C(O)CC(=O)N[C@@H](COC(F)F)c2cccc(OC(F)F)c2)C1` (single isomer, unassigned) [Example 15a] it was 3.7 µM; in that of `CC(C)CC(C)(O)CC(=O)N[C@@H](COC(F)F)c1cccc(OC(F)F)c1` (single isomer, unassigned) [Example 13b], 0.36 µM; in that of `CCC1(C(O)CC(=O)N[C@@H](COC(F)F)c2cccc(OC(F)F)c2)CC1` (single isomer, unassigned) [Example 8b], 1.2 µM.
`CC(O)(CC(=O)N[C@@H](COC(F)F)c1cccc(OC(F)F)c1)CC(F)(F)F` (single isomer, unassigned) [Example 12b]: the EC50 amounted to 6.2 µM. This EC50 lies about 5.2-fold higher than the previous one.
Turning to `CC(C)(C)[C@@H](O)CC(=O)N[C@@H](COC(F)(F)F)c1cccc(OC(F)F)c1` [Example 18, (S)—N—((R)-1-(3-(difluoromethoxy)phenyl)-2-(trifluoromethoxy)ethyl)-3-hydroxy-4,4-dimethylpentanamide], the midpoint of the response, the EC50, lay at 0.95 µM.
In the case of `CC(C)C(C)(O)CC(=O)N[C@@H](COC(F)F)c1cccc(OC(F)F)c1` (single isomer, unassigned) [Example 14b] it was 1.3 µM.
In the case of `CC(C)(C)[C@@H](O)CC(=O)N[C@@H](COC1CC1)c1cccc(OC(F)F)c1` [Example 17, (S)—N—((R)-2-cyclopropoxy-1-(3-(difluoromethoxy)phenyl)ethyl)-3-hydroxy-4,4-dimethylpentanamide] it was 1.5 µM; in that of `CC(C)(C)[C@@H](O)CC(=O)N[C@@H](CCC#N)c1cccc(OC(F)(F)F)c1` [Example 25, (S)—N—((S)-3-cyano-1-(3-(trifluoromethoxy)phenyl)propyl)-3-hydroxy-4,4-dimethylpentanamide], 1.9 µM.
In the case of `CC(O)(CC(=O)N[C@@H](COC(F)F)c1cccc(OC(F)(F)F)c1)C1(F)CC1` (single isomer, unassigned) [Example 10a] it was 0.66 µM; in that of `CC(C)(C)[C@@H](O)CC(=O)N[C@@H](CC#N)c1cccc(OC(F)(F)F)c1` [Example 24, (S)—N—((S)-2-cyano-1-(3-(trifluoromethoxy)phenyl)ethyl)-3-hydroxy-4,4-dimethylpentanamide], 2.4 µM; in that of `CC1(C)CC(C(O)CC(=O)N[C@@H](COC(F)F)c2cccc(OC(F)F)c2)C1` (single isomer, unassigned) [Example 15b], 0.65 µM.
Turning to `CCC[C@H](NC(=O)CC(O)C1CC(F)(F)C1)c1cccc(OC(F)F)c1` (single isomer, unassigned) [Example 7b], the EC50 stood at 25 µM.
In the case of `O=C(CC(O)C1CC(F)(F)C1)N[C@@H](COC(F)F)c1cccc(OC(F)F)c1` (single isomer, unassigned) [Example 5b] it was 4.5 µM.
Then `CC(O)(CC(=O)N[C@@H](COC(F)F)c1cccc(OC(F)(F)F)c1)C1(F)CC1` (single isomer, unassigned) [Example 10b], with 4.1 µM; and `O=C(CC1(O)CC(F)(F)C1)N[C@@H](COC(F)F)c1cccc(OC(F)(F)F)c1` [Example 27, (R)-2-(3,3-difluoro-1-hydroxycyclobutyl)-N-(2-(difluoromethoxy)-1-(3-(trifluoromethoxy)phenyl)ethyl)acetamide], with 2.3 µM; and `O=C(CC(O)C1CC(F)(F)C1)N[C@@H](COC(F)F)c1cccc(OC(F)(F)F)c1` (single isomer, unassigned) [Example 6b], with 1.1 µM.
Then `CC(O)(CC(=O)N[C@@H](COC(F)F)c1cccc(OC(F)(F)F)c1)C1CC1` (single isomer, unassigned) [Example 11a], with 5.4 µM; and `CC(C)CC(C)(O)CC(=O)N[C@@H](COC(F)F)c1cccc(OC(F)F)c1` (single isomer, unassigned) [Example 13a], with 0.96 µM.
In turn, `N#CC[C@H](NC(=O)CC1(O)CC(F)(F)C1)c1cccc(OC(F)(F)F)c1` [Example 34, (S)—N-(2-cyano-1-(3-(trifluoromethoxy)phenyl)ethyl)-2-(3,3-difluoro-1-hydroxycyclobutyl)acetamide] returned an EC50 of 2.5 µM.
In the case of `O=C(CC(O)C1CC(F)(F)C1)N[C@@H](COC(F)F)c1cccc(OC(F)F)c1` (single isomer, unassigned) [Example 5a] it was 1.2 µM.
As for `CCC[C@H](NC(=O)C[C@H](O)C(C)(C)C)c1cccc(OC(F)F)c1` [Example 20, (S)—N—((S)-1-(3-(difluoromethoxy)phenyl)butyl)-3-hydroxy-4,4-dimethylpentanamide], the EC50 was 1.5 µM. This EC50 and that of the molecule before are within 1.5-fold of each other.
In the case of `O=C(CC(O)C1(C(F)(F)F)CC1)N[C@@H](COC(F)F)c1cccc(OC(F)F)c1` (single isomer, unassigned) [Example 3b] it was 2.4 µM; in that of `O=C(CC(O)C1CCCC1)N[C@@H](COC(F)F)c1cccc(OC(F)F)c1` (single isomer, unassigned) [Example 16b], 0.43 µM.
In the case of `O=C(CC1(O)CC(F)(F)C1)N[C@@H](COC(F)F)c1cccc(OC(F)F)c1` [Example 26, (R)-2-(3,3-difluoro-1-hydroxycyclobutyl)-N-(2-(difluoromethoxy)-1-(3-(difluoromethoxy)phenyl)ethyl)acetamide] it was 0.96 µM.
In the case of `CC(C)(C)[C@@H](O)CC(=O)N[C@@H](COC(F)(F)F)c1cccc(OC(F)(F)F)c1` [Example 19, (S)—N—((R)-1-(3-(trifluoromethoxy)phenyl)-2-(trifluoromethoxy)ethyl)-3-hydroxy-4,4-dimethylpentanamide] it was 0.94 µM; in that of `CC(O)(CC(=O)N[C@@H](COC(F)F)c1cccc(OC(F)(F)F)c1)C1CC1` (single isomer, unassigned) [Example 11b], 1.7 µM; in that of `O=C(CC1(O)CC(F)(F)C1)N[C@@H](COC(F)(F)F)c1cccc(OC(F)F)c1` [Example 30, (R)-2-(3,3-difluoro-1-hydroxycyclobutyl)-N-(1-(3-(difluoromethoxy)phenyl)-2-(trifluoromethoxy)ethyl)acetamide], 1.8 µM.
Regarding `CC(C)(C)C(O)CC(=O)N[C@@H](COC(F)F)c1cccc(OC(F)F)c1` (single isomer, unassigned) [Example 1b], the EC50 was found to be 0.42 µM.
Then `CC(O)(CC(=O)N[C@@H](COC(F)F)c1cccc(OC(F)F)c1)C1(F)CC1` (single isomer, unassigned) [Example 9b], with 9.2 µM; and `CCOC[C@H](NC(=O)CC(O)C(C)(C)C)c1cccc(OC(F)(F)F)c1` (single isomer, unassigned) [Example 2b], with 1.8 µM.
In turn, `O=C(CC(O)C1CCCC1)N[C@@H](COC(F)F)c1cccc(OC(F)F)c1` (single isomer, unassigned) [Example 16a] gave an EC50 of 2.6 µM. The EC50 values of the last two molecules are within 1.5-fold of each other.
